Like-named read-outs stand apart in the source and are kept apart here.
Key:
[1] = test system: human gastric cancer cell line SGC7901; test: WST-8 (CCK-8) in vitro cytotoxicity test, SGC7901; type: cell-based; details: read-out: IC50, SGC7901
Description: (§1) A WST-8 colorimetric assay (Cell Counting Kit-8, Dojindo) was used to determine the cytotoxicity of the obtained compounds against four human cancer cell lines (human gastric cancer cell line SGC7901, cisplatin-resistant human gastric cancer cell line SGC7901/DDP, human colon cancer cell line HCT-8, and taxol-resistant human colon cancer cell line HCT-8/T) and noncancerous NCM460 colon cell line. Each cell line (100 μL, 5 × 10^4 cells/mL) was inoculated into standard 96-well, flat-bottom microplates, and incubated with DMEM (for HCT-8 and NCM460) or RPMI-1640 (for HCT-8/T, SGC7901, and SGC7901/DDP) medium for 24 h at 37°C in a humidified atmosphere containing 5% CO2. The attached cells were then incubated with serially diluted NATs (1-8). After continuous exposure to the compounds for 72 h, 10 μL CCK-8 solution was added. After 3 h of incubation at 37°C (5% CO2), the absorbance was measured at 450 nm using a microtiter plate reader (SpectraMax 190, Molecular Devices). Cisplatin and taxol (purity ≥ 98% Sigma, USA) were used as positive controls. All studies were performed in triplicate and the IC50 values were calculated using Prism software.

[2] = test system: cisplatin-resistant human gastric cancer cell line SGC7901/DDP; test: WST-8 (CCK-8) in vitro cytotoxicity test, SGC7901/DDP; type: cell-based; details: read-out: IC50, SGC7901/DDP
Description: as §1

[3] = test system: human colon cancer cell line HCT-8; test: WST-8 (CCK-8) in vitro cytotoxicity test, HCT-8; type: cell-based; details: read-out: IC50, HCT-8
Description: as §1

[4] = test system: taxol-resistant human colon cancer cell line HCT-8/T; test: WST-8 (CCK-8) in vitro cytotoxicity test, HCT-8/T; type: cell-based; details: read-out: IC50, HCT-8/T
Description: as §1

[5] = test system: noncancerous NCM460 colon cell line; test: WST-8 (CCK-8) in vitro cytotoxicity test, NCM460; type: cell-based; details: Homo sapiens, read-out: IC50, NCM460
Description: as §1

[6] = test system: SGC7901, SGC7901/DDP, HCT-8 and HCT-8/T cell lines; test: Cytotoxicity summarised over all four cancer cell lines; type: cell-based, human; details: for IC50: Homo sapiens, read-out: anti-proliferative activity (IC50 span) against all four cell lines; for fold better anti-proliferative activity in drug-resistant cell lines than in sensitive ones: span over compounds 3, 4, 7, 8; for fold higher activity than corresponding oxidized forms (3 and 4): in vitro, span over four cell lines
Description: as §1

[7] = test system: HT-29 cell line; set-up: method as in Li et al., 2013; details: ref Li et al., 2013; cited from earlier work
[8] = test system: HCT-8 cells; test: Apoptosis analysis by flow cytometry (Annexin V-FITC/PI); type: cell-based, human; details: NAT-A 0.5 μM, 72 h, untreated 7.2 ± 1.1%
Description: An Annexin V-FITC/PI Apoptosis Detection kit I (BD Pharmingen, San Diego, CA, USA) was adopted to examine the cell apoptosis according to the manufacturer's instructions. HCT-8 cells were cultured on a six-well plate (3 × 10^5 cells/well) and allowed to attach for 24 h before treated with NAT-A (0 and 0.5 μM) for 72 h. Then cells were harvested, washed with PBS and resuspended in 1 × binding buffer. Cell suspension (100 μL) was incubated with 5 μL FITC Annexin-V and 5 μL propidium iodide (PI) for 15 min in the dark. Following the incubation, 400 μL 1 × binding buffer was added into each sample before analysis using flow cytometry (Thermo Fisher Scientific, Eugene, Oregon, USA). The lower left section of fluorocytogram (Annexin V-, PI-) represents the normal cells, lower right section of fluorocytogram (Annexin V+, PI-) represents early apoptosis cells, and upper right section of fluorocytogram (Annexin V+, PI+) represents late apoptosis cells.

[9] = test system: HCT-8 cells; test: Cell morphology, DAPI staining; type: cell-based, human; details: 72 h
Description: HCT-8 cells were seeded in 12-well plates at a density of 1 × 10^5 cells per well. After overnight adherence, they were exposed to the indicated concentration of NAT-A for 72 h. After that, the cells were washed with PBS and fixed 4% paraformaldehyde for 30 min at room temperature. After washing with PBS, the cells were stained with DAPI (100 ng/mL) for 15 min in the dark and photographed using a fluorescence microscope (Nikon, Japan).

[10] = test system: GRP78; set-up: method as in Izumikawa et al., 2007; details: ref Izumikawa et al., 2007; cited from earlier work
[11] = test system: K562 cells; set-up: method as in Takahashi et al., 2001; details: ref Takahashi et al., 2001; cited from earlier work
[12] = test system: KB cells; set-up: method as in Takahashi et al., 2001; details: ref Takahashi et al., 2001; cited from earlier work
[13] = Homo sapiens, HCT-8, 72 h exposure, CCK-8, mean ± SD, n = 3
[14] = Homo sapiens, HCT-8, taxol-resistant, 72 h exposure, CCK-8, mean ± SD, n = 3
[15] = 72 h exposure, CCK-8, mean ± SD, n = 3

Row | Compound | IC50 ([1]; Homo sapiens, SGC-7901, 72 h) | IC50 ([2]; Homo sapiens, SGC-7901, 72 h) | IC50 ([3]; Homo sapiens, HCT-8, 72 h) | IC50 ([4]; Homo sapiens, HCT-8, 72 h) | fold better anti-proliferative activity in drug-resistant cell lines than in sensitive ones [6] | other results
1 | CC[C@H](C)[C@@H]1OC(=O)C(C)(C)C(=O)[C@@H](Cc2ccccc2)OC(=O)[C@H](C(C)C)OC(=O)[C@@H](NC(=O)c2cccc(N)c2O)[C@@H](C)OC1=O [Compound 1, Neoantimycin J] | > 20000 nM | > 20000 nM | > 20000 nM | > 20000 nM |  | 
2 | CC(C)[C@@H]1OC(=O)[C@@H](NC(=O)c2cccc(N)c2O)[C@@H](C)OC(=O)[C@H](C(C)C)OC(=O)C(C)(C)C(=O)[C@@H](Cc2ccccc2)OC1=O [Compound 2, Neoantimycin K] | > 20000 nM | > 20000 nM | > 20000 nM | > 20000 nM |  | 
3 | CC[C@H](C)[C@@H]1OC(=O)C(C)(C)C(=O)[C@@H](Cc2ccccc2)OC(=O)[C@H](C(C)C)OC(=O)[C@@H](NC(=O)c2cccc(NC=O)c2O)[C@@H](C)OC1=O [Compound 3, Neoantimycin H] | 104 ± 22.7 nM | 12.2 ± 4.6 nM | 523 ± 104 nM | 26.6 ± 1.5 nM | 5.2~33.5 fold | IC50 ([5]; NCM460, 72 h): 115 ± 18.7 nM; IC50 [6]: 1.5 to 523 nM
4 | CC(C)[C@@H]1OC(=O)[C@@H](NC(=O)c2cccc(NC=O)c2O)[C@@H](C)OC(=O)[C@H](C(C)C)OC(=O)C(C)(C)C(=O)[C@@H](Cc2ccccc2)OC1=O [Compound 4, Neoantimycin I] | 179 ± 18.3 nM | 15.7 ± 1.6 nM | 233 ± 20.1 nM | 32.6 ± 4.2 nM | 5.2~33.5 fold | IC50 ([5]; NCM460, 72 h): > 50000 nM; IC50 [6]: 1.5 to 523 nM
5 | CC[C@H](C)[C@@H]1OC(=O)C(C)(C)[C@@H](O)[C@@H](Cc2ccccc2)OC(=O)[C@H](C(C)C)OC(=O)[C@@H](NC(=O)c2cccc(N)c2O)[C@@H](C)OC1=O [Compound 5, Neoantimycin D] | 10200 nM | > 20000 nM | > 20000 nM | > 20000 nM |  | antiproliferative activity against HT-29 cell line [7]: hardly had any significant antiproliferative activity; cytotoxic activity (cell line not named at b4) [7]: did not show any cytotoxic activity
6 | CC(C)[C@@H]1OC(=O)[C@@H](NC(=O)c2cccc(N)c2O)[C@@H](C)OC(=O)[C@H](C(C)C)OC(=O)C(C)(C)[C@@H](O)[C@@H](Cc2ccccc2)OC1=O [Compound 6, Neoantimycin E] | 1770 nM | > 20000 nM | 13100 nM | > 20000 nM |  | antiproliferative activity against HT-29 cell line [7]: hardly had any significant antiproliferative activity
7 | CC[C@H](C)[C@@H]1OC(=O)C(C)(C)[C@@H](O)[C@@H](Cc2ccccc2)OC(=O)[C@H](C(C)C)OC(=O)[C@@H](NC(=O)c2cccc(NC=O)c2O)[C@@H](C)OC1=O [Compound 7, Neoantimycin A] |  |  |  |  | 5.2~33.5 fold | IC50 ([1]; Homo sapiens, SGC-7901, 72 h exposure, CCK-8, mean ± SD, n = 3): 24.5 ± 3.3 nM; IC50 ([2]; Homo sapiens, SGC-7901, cisplatin-resistant, 72 h exposure, CCK-8, mean ± SD, n = 3): 1.5 ± 0.1 nM; IC50 [3, 13]: 66.9 ± 5.7 nM; IC50 [4, 14]: 2 ± 0.1 nM; IC50 ([5]; NCM460, noncancerous colon cell, 72 h exposure, CCK-8, mean ± SD, n = 3): > 50000 nM; percentage of apoptotic cells (Annexin V/PI) [8]: 25.9 ± 0.7%; nuclear morphology after DAPI staining [9]: nuclear shrinkage, DNA fragments as well as chromatin condensation; IC50 ([6]; span over compounds 3, 4, 7, 8 and four cell lines): 1.5 to 523 nM; fold higher activity than corresponding oxidized forms (3 and 4) [6]: 1.2~13 fold
8 | CC(C)[C@@H]1OC(=O)[C@@H](NC(=O)c2cccc(NC=O)c2O)[C@@H](C)OC(=O)[C@H](C(C)C)OC(=O)C(C)(C)[C@@H](O)[C@@H](Cc2ccccc2)OC1=O [Compound 8, Neoantimycin F] | 98.5 ± 32.6 nM | 6.4 ± 0.5 nM | 136 ± 18.2 nM | 26.1 ± 0.1 nM | 5.2~33.5 fold | IC50 ([5]; NCM460, 72 h): > 50000 nM; IC50 [6]: 1.5 to 523 nM; fold higher activity than corresponding oxidized forms (3 and 4) [6]: 1.2~13 fold; antiproliferative activity against HT-29 cell line [7]: hardly had any significant antiproliferative activity
9 | CC[C@H](C)[C@@H]1OC(=O)C(C)(C)[C@@H](O)[C@@H](Cc2ccccc2)OC(=O)[C@H](C)OC(=O)[C@@H](NC(=O)c2cccc(N)c2O)[C@H](C)OC1=O [JBIR-05] |  |  |  |  |  | expression of GRP78 [10]: inhibited the expression of GRP78
10 | CCC(C)C1OC(=O)C(C)(C)C(O)C(Cc2ccccc2)OC(=O)C(C)OC(=O)C(NC(=O)c2cccc(NC=O)c2O)C(C)OC1=O (stereo not shown) [SW-163 A] |  |  |  |  |  | cytotoxicity against K562 cells [11]: no cytotoxicity; cytotoxicity against KB cells [12]: no cytotoxicity
11 | N.N.[Cl][Pt][Cl] [cisplatin, reference compound] |  |  |  |  |  | IC50 [1, 15]: 2560 nM; IC50 ([2]; cisplatin-resistant, 72 h exposure, CCK-8, mean ± SD, n = 3): 5670 nM; IC50 [3, 15]: 9490 nM; IC50 ([4]; taxol-resistant, 72 h exposure, CCK-8, mean ± SD, n = 3): > 20000 nM
12 | CC(=O)O[C@H]1C(=O)[C@@]2(C)[C@H]([C@H](OC(=O)c3ccccc3)[C@]3(O)C[C@H](OC(=O)[C@H](O)[C@@H](NC(=O)c4ccccc4)c4ccccc4)C(C)=C1C3(C)C)[C@]1(OC(C)=O)CO[C@@H]1C[C@@H]2O [taxol, reference compound] |  |  |  |  |  | IC50 [3, 13]: 2520 nM; IC50 [4, 14]: > 20000 nM

From article PMC6624652, “Compound Discovery and Structure-Activity Relationship Study of Neoantimycins Against Drug-Resistant Cancer Cells” (Frontiers in Chemistry, 2019)
